In data set [1] the target is ACE (hydrophobic and hydrophilic active site) (Homo sapiens, UniProt P12821). Particulars: cited from earlier work.
The conditions of data set [2]: compared with ramipril; cited from earlier work.
Data set [3] relates to patients on ACE inhibitors. Particulars: cited from earlier work.
Data set [4] has as its system patients with kidney failure. Nature of the data set: Clinical observations in patients with kidney failure. Type of data set: in vivo, human.
In data set [5] the test system is blood pressure (index of maximum tissue ACE inhibition). Particulars: rats, IV; cited from earlier work.
For data set [6], the system named is patients with CRF (serum creatinine of at least 2 mg/dl). Nature of the data set: Time to Dialysis in patients with chronic renal failure. The settings on record: conventional Rx <40 mg/d. Type of data set: in vivo, human. As to the method:
Outcomes data for patients with CRF due to hypertension, determined as Time to Dialysis, for patients with serum creatinine of at least 2 mg/dl at the first clinic visit:
The following are the expected differences in outcomes for patients with CRF due to NIDDM, determined as Time to Dialysis, for patients with serum creatinine of at least 2 mg/dl at the first clinic visit:
The following are the expected differences in outcomes for patients with ADPKD, determined as Time to Dialysis, for patients with serum creatinine of at least 2 mg/di at the fist clinic visit.

Data set [7] addresses T1, circulating ACE (Homo sapiens, UniProt P12821).
T1 construct: from tissue; host or cells: circulation (blood, plasma or serum) of dosed subjects
Particulars: cited from earlier work; for circulating ACE inhibited: 5 mg dose; for inhibition of enzyme activity: equal amount (5 mg).

For data set [8], the system named is patient with end-stage COPD. Description: Outcome for patient with COPD on ramipril.
Data set [9] relates to new cases of NIDDM. Particulars: HOPE study (NEJM Jan. 21, 2000); cited from earlier work.
Data set [10] concerns hemodialysis patients. Description: Ramipril in hemodialysis patients with ESRD due to hypertension. Particulars: 5 mg/day; two black hemodialysis patients. Type of data set: in vivo, human.
Data set [11] relates to serum potassium. The text has this: As described above, fludrocortisone acetate ([…]) can be used to control serum K+ concentration. […] Diabetes Technology & Therapeutics. […] This can be easily achieved using […] (fludrocortisone acetate; see Table A).

Where two headings read alike, the source gives them in different places.

The source of these data is patent US20050203169A1, “Methods and compositions for treating diseases associated with excesses in ACE” (priority 2001, published 2005).

ACE (hydrophobic and hydrophilic active site), sequence (P12821 30-1306): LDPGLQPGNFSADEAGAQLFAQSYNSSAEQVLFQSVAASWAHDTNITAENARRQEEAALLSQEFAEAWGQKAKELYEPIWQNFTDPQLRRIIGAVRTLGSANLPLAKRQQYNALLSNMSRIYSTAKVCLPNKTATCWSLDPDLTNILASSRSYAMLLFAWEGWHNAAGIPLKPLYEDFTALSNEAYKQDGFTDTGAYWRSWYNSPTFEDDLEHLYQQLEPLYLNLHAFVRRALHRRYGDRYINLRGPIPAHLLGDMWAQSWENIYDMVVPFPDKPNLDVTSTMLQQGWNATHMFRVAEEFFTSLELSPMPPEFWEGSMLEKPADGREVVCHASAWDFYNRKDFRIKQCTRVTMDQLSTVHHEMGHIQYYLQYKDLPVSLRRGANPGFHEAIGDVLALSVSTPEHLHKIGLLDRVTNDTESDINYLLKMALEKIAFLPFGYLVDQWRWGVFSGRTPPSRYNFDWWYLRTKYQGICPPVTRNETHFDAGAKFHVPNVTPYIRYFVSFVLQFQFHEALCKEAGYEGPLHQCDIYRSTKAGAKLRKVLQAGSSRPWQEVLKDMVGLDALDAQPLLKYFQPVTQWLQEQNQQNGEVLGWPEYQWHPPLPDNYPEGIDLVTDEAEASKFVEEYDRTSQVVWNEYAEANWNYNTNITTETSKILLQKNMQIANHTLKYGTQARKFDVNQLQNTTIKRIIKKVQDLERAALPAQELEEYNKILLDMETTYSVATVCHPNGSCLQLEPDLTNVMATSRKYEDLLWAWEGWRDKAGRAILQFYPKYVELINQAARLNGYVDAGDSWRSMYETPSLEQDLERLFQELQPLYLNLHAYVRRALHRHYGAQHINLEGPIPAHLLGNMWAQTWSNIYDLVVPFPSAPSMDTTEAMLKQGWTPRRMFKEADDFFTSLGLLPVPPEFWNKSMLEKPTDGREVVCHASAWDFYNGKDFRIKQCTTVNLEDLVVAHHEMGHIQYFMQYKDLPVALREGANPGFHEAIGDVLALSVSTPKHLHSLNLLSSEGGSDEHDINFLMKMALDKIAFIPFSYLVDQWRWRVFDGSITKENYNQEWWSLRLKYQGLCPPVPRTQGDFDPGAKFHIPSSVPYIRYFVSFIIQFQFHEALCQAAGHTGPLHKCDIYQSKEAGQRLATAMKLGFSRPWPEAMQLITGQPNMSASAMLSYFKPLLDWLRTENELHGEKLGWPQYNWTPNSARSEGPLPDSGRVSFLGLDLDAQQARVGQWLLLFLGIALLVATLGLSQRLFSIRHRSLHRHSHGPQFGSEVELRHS
T1 sequence (P12821 30-1232 limits assumed): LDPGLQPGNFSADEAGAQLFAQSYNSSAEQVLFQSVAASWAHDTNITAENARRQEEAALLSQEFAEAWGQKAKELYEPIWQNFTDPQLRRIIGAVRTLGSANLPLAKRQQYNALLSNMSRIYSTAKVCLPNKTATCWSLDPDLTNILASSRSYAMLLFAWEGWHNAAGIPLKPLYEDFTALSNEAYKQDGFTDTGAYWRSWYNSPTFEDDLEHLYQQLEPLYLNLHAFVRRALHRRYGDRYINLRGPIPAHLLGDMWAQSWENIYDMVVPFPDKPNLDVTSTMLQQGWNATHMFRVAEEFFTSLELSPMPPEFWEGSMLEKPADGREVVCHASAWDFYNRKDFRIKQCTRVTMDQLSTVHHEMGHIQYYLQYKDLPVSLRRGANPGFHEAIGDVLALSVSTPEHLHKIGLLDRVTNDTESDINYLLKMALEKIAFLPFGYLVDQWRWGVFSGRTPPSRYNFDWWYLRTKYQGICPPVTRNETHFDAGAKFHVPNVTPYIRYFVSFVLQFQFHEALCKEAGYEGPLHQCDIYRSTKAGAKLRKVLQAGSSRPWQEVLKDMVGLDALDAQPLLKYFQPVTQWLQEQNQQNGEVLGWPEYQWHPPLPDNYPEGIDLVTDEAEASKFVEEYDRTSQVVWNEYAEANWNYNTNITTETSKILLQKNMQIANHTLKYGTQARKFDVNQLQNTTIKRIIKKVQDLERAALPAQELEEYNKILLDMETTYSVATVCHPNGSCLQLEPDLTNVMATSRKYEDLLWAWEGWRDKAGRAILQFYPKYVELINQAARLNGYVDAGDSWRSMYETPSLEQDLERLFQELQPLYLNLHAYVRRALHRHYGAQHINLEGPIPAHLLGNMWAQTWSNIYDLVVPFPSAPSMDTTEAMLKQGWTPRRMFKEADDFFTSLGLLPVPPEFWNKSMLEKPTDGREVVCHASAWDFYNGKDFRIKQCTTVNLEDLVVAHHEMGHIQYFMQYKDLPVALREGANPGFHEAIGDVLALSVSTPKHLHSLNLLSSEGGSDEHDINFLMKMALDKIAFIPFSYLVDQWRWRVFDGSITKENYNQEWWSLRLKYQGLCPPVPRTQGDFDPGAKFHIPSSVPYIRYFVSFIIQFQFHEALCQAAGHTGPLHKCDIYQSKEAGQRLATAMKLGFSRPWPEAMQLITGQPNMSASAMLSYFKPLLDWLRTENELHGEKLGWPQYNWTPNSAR

`CCOC(=O)[C@H](CCc1ccccc1)N[C@@H](C)C(=O)N1Cc2ccccc2C[C@H]1C(=O)O` [quinapril]: the “off-rate t(1/2)” value in [1] (hydrophobic active site) is around 24 h. In addition, the “octanol: water partition coefficient” value in data set [2] was “higher”. For the same molecule, in data set [3] (from 5 mg/day to 80 mg/day), the dose-toxicity curve entry is on record as “flat”. In addition, in data set [3] (use by 12,000 patients), the “patients with elevation of mood” value was 20%. In addition, the “serum creatinine on treatment” value in data set [4] (Patient, 20 mg/day given hs, decreased from 4.5) worked out at 1.7 mg/di. Further, in data set [4] (comparison of quinapril with ramipril), the “slowing down kidney failure” value was “superior to RAMIPRIL”. The “dose at which maximum blood pressure lowering occurred” value in data set [5] is on record as 3 mg/kg. For the same molecule, the “Time to Dialysis” value is on record as 8.8 yr in data set [6] (ADPKD, Caucasian men); 3.3 yr in data set [6] (CRF due to NIDDM, African American men); 2.7 yr in data set [6] (CRF due to NIDDM, Caucasian men); 3.6 yr in data set [6] (CRF due to hypertension, African American men); 4.3 yr in data set [6] (CRF due to hypertension, Caucasian men).
For the molecule `CCOC(=O)[C@H](CCc1ccccc1)N[C@@H](C)C(=O)N1CCC[C@H]1C(=O)O` [enalapril], the “off-rate t(1/2)” value in data set [1] (hydrophilic site in the circulating form of the enzyme) is around 4 h. Besides, in data set [7], the “circulating ACE inhibited” value was 47% and the “inhibition of enzyme activity” value is given as 50%.
For the molecule `CCOC(=O)C1=C(COCCN)NC(C)=C(C(=O)OC)C1c1ccccc1Cl` (stereo not drawn) [Amlodipine], the “adverse event when added for BP control” value in data set [8] (COPD patient on ramipril) is reported as “Developed CHF”.
Molecule `CCOC(=O)[C@H](CCc1ccccc1)N[C@@H](C)C(=O)N1[C@H](C(=O)O)C[C@@H]2CCC[C@@H]21` [ramipril] displayed an FEV1 in data set [8] (8/99, baseline 0.87 L) of 0.83 L. Further, the BP in data set [8] (currently on 600 mg/d) is recorded as 135/80. For the same molecule, the “effect on pulmonary hypertension” value in [8] (emphysema (COPD)) is “appears to lower pulmonary hypertension”. Besides, in data set [8] (human, in vivo), the non-fluid weight gain is 25 lb. For the same molecule, the hospitalization entry in data set [8] (period of over five years) is recorded as “Hospitalized for CHF but not for COPD”. In data set [8] (two weeks after start of 2.5 mg/d, first seen with BP 104/60), the BP was 180/110. For the same molecule, the “off-rate t(1/2)” value in data set [1] (hydrophobic active site) was around 24 h. Also, in data set [7], the “circulating ACE inhibited” value is given as 97% and the “inhibition of enzyme activity” value is “greater than 95%”. In data set [9], the “new cases of NIDDM” value is on record as “prevention of new cases of NIDDM”. Besides, in data set [10], the serum glucose was found to be 40 mg/dL and the serum potassium result is recorded as “above 6 mEq/l”.
On to `CC(=O)OCC(=O)[C@@]1(O)CC[C@H]2[C@@H]3CCC4=CC(=O)CC[C@]4(C)[C@@]3(F)[C@@H](O)C[C@@]21C` [Florinef, fludrocortisone acetate], for which the “volume (fluid) retention” value in data set [11] (in vivo) was “# retention and congestive heart failure. Clinical observation indicates that volume retention occurs with daily FLORINEF but not with less-than-daily use, even up to five times a week”. The “serum potassium under adequate control” value in data set [11] (same daily dose despite higher dose of ACE inhibitor) is given as “below 5.3 mEq/l”. Further, the “control of serum potassium” value in data set [11] (up to 0.1 mg daily, chronic renal failure patients on high dose ACE inhibitor (e.g. 2 mg/kg/day quinapril)) is reported as “could control serum potassium”.
In the case of `CCCCc1nc(Cl)c(CO)n1Cc1ccc(-c2ccccc2-c2nn[nH]n2)cc1` [Losartan], in [11] (combined with an ACE inhibitor), the “effect on serum potassium” value is on record as “elevation of serum potassium”. Besides, in data set [4] (50 mg/day, patients with kidney failure), the “benefit when added to QUINAPRIL” value is given as “no added benefit”.
